According to US20050228016A1, “TETRAHYDROQUINOLINES FOR MODULATING THE EXPRESSION OF EXOGENOUS GENES VIA AN ECDYSONE RECEPTOR COMPLEX” (priority 2002, published 2005):

Assays:
[1] = target: T1, Bombyx mori EcR (VP16-BmEcR, CVBE) (Bombyx mori, UniProt P49881); assay: Z3 assay (HEK-293 clone Z3 with CVBE and 6x EcRE LacZ, β-galactosidase reporter); format: cell-based; conditions: average of two wells; for fold induction at 33 µM: HEK293, 48 h, read-out: Fold Induction Average, Z3V1 Assay 33 μM; for Fold Induction Average, Z3V1 Assay 33 μM: 48 h
T1 construct: expressed in transfected cells
T1 sequence (P49881 86-606): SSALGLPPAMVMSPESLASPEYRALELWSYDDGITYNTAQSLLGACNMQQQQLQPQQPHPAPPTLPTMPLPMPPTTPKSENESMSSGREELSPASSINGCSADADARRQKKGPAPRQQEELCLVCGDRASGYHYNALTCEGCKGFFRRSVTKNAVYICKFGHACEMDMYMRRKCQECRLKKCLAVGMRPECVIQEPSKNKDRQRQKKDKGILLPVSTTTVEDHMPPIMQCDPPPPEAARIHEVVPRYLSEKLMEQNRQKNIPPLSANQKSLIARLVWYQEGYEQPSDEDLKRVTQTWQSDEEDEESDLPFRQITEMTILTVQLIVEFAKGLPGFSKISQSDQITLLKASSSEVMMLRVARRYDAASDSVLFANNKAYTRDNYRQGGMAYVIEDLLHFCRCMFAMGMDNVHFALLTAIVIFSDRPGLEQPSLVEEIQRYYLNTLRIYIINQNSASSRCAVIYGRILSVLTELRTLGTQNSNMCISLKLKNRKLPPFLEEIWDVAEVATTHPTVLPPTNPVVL

[2] = target: T2, Gal4DBD/AaEcR (DEF) (Aedes aegypti, UniProt P49880); assay: cell-based; format: cell-based; conditions: for fold induction at 33 µM: NIH3T3, read-out: Fold Induction Average, AA_3T3V1 Assay 33 μM; for Fold Induction Average, AA_3T3V1 Assay 33 μM: 3T3 cells, 48 h, average of two wells
T2 construct: The wildtype D, E, and F domains from mosquito Aedes aegypti EcR; expressed in transfected cells; host or cells: 3T3 cells
How it was run: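 Single-dose ligand testing at 33 μM, applied in serum medium after 4 h transfection. Host was 3T3 cells carrying Gal4DBD/AaEcR (DEF) plus a 5× GAL4 RE-driven firefly luciferase reporter (pFRLuc).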

[3] = target: T3, DmEcR + LmUSP (Drosophila melanogaster, UniProt P34021); assay: cell-based; conditions: for fold induction at 10 µM: NIH3T3, read-out: Fold Induction (10 μM); for fold induction at 100 µM: NIH3T3, read-out: Fold Induction (100 μM)
T3 sequence (P34021 342-878): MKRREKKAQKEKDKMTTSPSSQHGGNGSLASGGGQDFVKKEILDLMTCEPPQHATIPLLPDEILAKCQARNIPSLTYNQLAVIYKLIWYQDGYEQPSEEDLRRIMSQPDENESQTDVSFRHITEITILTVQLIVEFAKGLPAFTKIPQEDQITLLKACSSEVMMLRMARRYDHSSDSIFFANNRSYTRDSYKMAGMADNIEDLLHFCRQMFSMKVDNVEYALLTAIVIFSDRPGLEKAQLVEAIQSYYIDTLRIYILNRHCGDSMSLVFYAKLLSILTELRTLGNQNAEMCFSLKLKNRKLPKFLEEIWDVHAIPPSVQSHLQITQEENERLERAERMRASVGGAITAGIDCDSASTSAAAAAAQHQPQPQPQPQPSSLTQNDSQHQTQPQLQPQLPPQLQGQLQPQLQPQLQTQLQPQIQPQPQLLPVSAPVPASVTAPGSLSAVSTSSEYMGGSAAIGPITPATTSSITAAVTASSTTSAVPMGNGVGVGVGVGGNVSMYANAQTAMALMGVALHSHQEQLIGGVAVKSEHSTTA
Experimental: (§4) To determine if any of the compounds shown in Table 1 and Table 2 can act as inducers of reporter gene activity in a transactivation assay, these compounds were tested in NIH3T3 cells transfected with pFRLUC reporter and gene expression cassettes, 1.1 to 1.8 described in Example 1. […] At 48 hr after adding ligand, the cells were harvested and reporter activity was assayed using Dual Luciferase assay kit (Promega carporation). Total relative light units (RLU) are shown. Standard methods for culture and maintenance of the cells were followed.
(§5) Transfections: DNAs corresponding to the various switch constructs outlined in Example I, specifically switches 1.1 through 1.8, were transfected into mouse NIH3T3 cells (ATCC) as follows. Cells were harvested when they reached 50% confluency and plated in 6-, 12- or 24-well plates at 125,000, 50,000, or 25,000 cells, respectively, in 2.5, 1.0, or 0.5 ml of growth medium containing 10% fetal bovine serum (FBS), respectively. The next day, the cells were rinsed with growth medium and transfected for four hours. […] For 12-well plates, 4 μl of Superfect™ was mixed with 100 μl of growth medium. 1.0 μg of reporter construct and 0.25 μg of each receptor construct of the receptor pair to be analyzed were added to the transfection mix. A second reporter construct was added [pTKRL (Promega), 0.1 μg/transfection mix] that comprises a Renilla luciferase gene operably linked and placed under the control of a thymidine kinase (TK) constitutive promoter and was used for normalization. The contents of the transfection mix were mixed in a vortex mixer and let stand at room temperature for 30 min. At the end of incubation, the transfection mix was added to the cells maintained in 400 μl growth medium. The cells were maintained at 37° C. and 5% CO2 for four hours. At the end of incubation, 500 μl of growth medium containing 20% FBS and either dimethylsulfoxide (DMSO; control) or a DMSO solution of 0.1, 1, and 10 μM ligand was added and the cells were maintained at 37° C. and 5% CO2 for 48 hours. The cells were harvested and reporter activity was assayed. The same procedure was followed for 6 and 24 well plates as well except all the reagents were doubled for 6 well plates and reduced to half for 24-well plates.
(§6) Ligands: All ligands were dissolved in DMSO and the final concentration of DMSO was maintained at 0.1% in both controls and treatments.
(§7) Reporter Assays: Cells were harvested 48 hours after adding ligands. 125, 250, or 500 μl of passive lysis buffer (part of Dual-luciferase™ reporter assay system from Promega Corporation) were added to each well of 24- or 12- or 6-well plates respectively. The plates were placed on a rotary shaker for 15 minutes. Twenty μl of lysate were assayed. Luciferase activity was measured using Dual-luciferase™ reporter assay system from Promega Corporation following the manufacturer's instructions.

[4] = test system: CfEcR + LmUSP; conditions: CfEcR + LmUSP in 3T3 cells, reporter assayed 48 h after ligand
Experimental: 1.9—Gal4CfEcR-DEF/VP16LmRXR-EF: This construct was prepared in the same way as switch 1.1 except LmRXR-EF (SEQ ID NO: 18) was used in place of HsRXRβ-LmRXREF chimera.
as §4, §5, §6, §7

[5] = target: T4, GAL4AaEcR-DEF/VP16HsRXRβ-EF (Aedes aegypti, UniProt P49880); assay: Transactivation reporter assay, AaEcR based switch (1.4) in NIH3T3 cells; format: cell-based; conditions: mammalian cells; FIGS. 2-5
T4 construct: expressed in transfected cells; host or cells: mouse NIH3T3 cells
T4 sequence (P49880 405-776 limits assumed): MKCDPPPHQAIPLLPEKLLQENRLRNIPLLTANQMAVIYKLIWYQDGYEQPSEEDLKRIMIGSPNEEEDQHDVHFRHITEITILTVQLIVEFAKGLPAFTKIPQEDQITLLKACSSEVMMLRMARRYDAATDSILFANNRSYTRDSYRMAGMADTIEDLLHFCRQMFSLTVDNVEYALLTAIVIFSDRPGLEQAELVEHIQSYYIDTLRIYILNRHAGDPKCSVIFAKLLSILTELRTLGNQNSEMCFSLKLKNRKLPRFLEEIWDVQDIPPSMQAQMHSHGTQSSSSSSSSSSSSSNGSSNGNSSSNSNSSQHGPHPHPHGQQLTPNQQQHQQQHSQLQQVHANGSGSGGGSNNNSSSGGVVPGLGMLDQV
T4 sequence (P28702 299-533 partner limits assumed): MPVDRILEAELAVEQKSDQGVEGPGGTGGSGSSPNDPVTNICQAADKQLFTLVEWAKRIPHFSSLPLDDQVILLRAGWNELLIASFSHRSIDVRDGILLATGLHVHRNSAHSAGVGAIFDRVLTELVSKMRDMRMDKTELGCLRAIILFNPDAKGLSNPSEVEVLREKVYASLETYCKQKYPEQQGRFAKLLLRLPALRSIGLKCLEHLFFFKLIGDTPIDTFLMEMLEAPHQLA
Experimental: Total relative light units (RLU) are shown.
Twenty μl of lysate were assayed.

[6] = test system: GAL4 DBD-CfEcR(DEF)/VP16AD-MmRXRE; conditions: CHO 13B3 clone, 48 h, average of two wells
From the text: GAL4 DBD-CfEcR(DEF)/VP16AD-MmRXRE: The wild-type D, E, and F domains from spruce budworm Choristoneura fumiferana EcR (“CfEcR-DEF”; SEQ ID NO: 1) were fused to a GAL4 DNA binding domain (“Gal4DBD1-147”; nucleotides 31 to 471 of SEQ ID NO: 2) and placed under the control of the SV40e promoter of pM vector (PT3119-5, Clontech, Palo Alto, Calif.). The D and E domains from Mus Musculus RXR (“MmRXR-DE”; SEQ ID NO: 22) were fused to the transactivation domain from VP16 (“VP16AD”; SEQ ID NO: 5) and placed under the control of the SV40e promoter of the pVP16 vector (PT3127-5, Clontech, Palo Alto, Calif.).
CHO cells were transiently transfected with transcription cassettes for GAL4 DBD-CfEcR(DEF) and for VP16AD-MmRXRE controlled by SV40e promoters. Stably transfected cells were selected using Hygromycin. Individually isolated CHO cell clones were transiently transfected with a GAL4 RE-luciferase reporter (pFR-Luc, Stratagene, La Jolla, Calif.). The 13B3 clone was selected using Zeocin.
(§1) Cells were trypsinized and diluted to a concentration of 2.5×10^4 cells mL. 100 μL of cell suspension was placed in each well of a 96 well plate and incubated at 37° C. under 5% CO2 for 24 h. Ligand stock solutions were prepared in DMSO and diluted 300 fold for all treatments.
(§2) Luciferase reporter gene expression was measured 48 h after cell treatment using Bright-Glo™ Luciferase Assay System from Promega (E2650). Luminescence was detected at room temperature using a Dynex MLX microtiter plate luminometer.
(§3) Each assay was conducted in two separate wells, and the two values were averaged. Fold inductions were calculated by dividing relative light units (“RLU”) in ligand treated cells with RLU in DMSO treated cells.

[7] = test system: GAL4 DBD (1-147)-CfEcR(DEF)/VP16AD-βRXREF-LmUSPEF; conditions: CHO 27-63 clone, 48 h, average of two wells
From the text: GAL4 DBD (1-147)-CfEcR(DEF)/VP16AD-βRXREF-LmUSPEF: The wild-type D, E, and F domains from spruce budworm Choristoneura fumiferana EcR (“CfEcR-DEF”; SEQ ID NO: 1) were fused to a GAL4 DNA binding domain (“Gal4DBD1-147”; nucleotides 31 to 471 of SEQ ID NO: 2) and placed under the control of a phosphoglycerate kinase promoter (“PGK”; SEQ ID NO: 19). Helices 1 through 8 of the EF domains from Homo sapiens RXRβ and helices 9 through 12 of the EF domains of Locusta migratoria Ultraspiracle Protein (“HsRXRβ-EF-LmUSP-EF”; SEQ ID NO: 4) were fused to the transactivation domain from VP16 (“VP16AD”; SEQ ID NO: 5) and placed under the control of an elongation factor-1α promoter (“EF-1α”; SEQ ID NO: 20). Five consensus GAL4 response element binding sites (“5× GAL4RE”; comprising 5 copies of a GAL4RE comprising SEQ ID NO: 7) were fused to a synthetic TATA minimal promoter (SEQ ID NO: 21) and placed upstream of the luciferase reporter gene (SEQ ID NO: 9).
CHO cells were transiently transfected with transcription cassettes for GAL4 DBD (1-147) CfEcR(DEF) and for VP16AD βRXREF-LmUSPEF controlled by ubiquitously active cellular promoters (PGK and EF-1α, respectively) on a single plasmid. Stably transfected cells were selected by Zeocin resistance. Individually isolated CHO cell clones were transiently transfected with a GAL4 RE-luciferase reporter (pFR Luc). 27-63 clone was selected using Hygromycin.
as §1, with “treatments. Dose response testing consisted of 8 concentrations ranging from 33 μM to 0.01 μM.” for “treatments.”
as §2, §3

Compound	fold induction at 33 µM [1]	fold induction at 33 µM [2]	fold induction at 10 µM [3]	fold induction at 100 µM [3]	Fold Induction (10 μM) [4] [fold]	Fold Induction Average, Z3V1 Assay 33 μM [1] [fold]	Activity on AaEcR based switches [5]	Fold Induction Average, AA_3T3V1 Assay 33 μM [2] [fold]	Fold Induction Average, 13B3V1 Assay 33 μM [6] [fold]	Fold Induction Average, 27-63V1 Assay 33 μM [7] [fold]
C[C@H]1C[C@H](Nc2ccc(F)cc2)c2cc(F)ccc2N1C(=O)c1ccc(F)c(Cl)c1 (relative stereo) [Compound I-6, trans-1-(3-chloro-4-fluorobenzoyl)-6-fluoro-2-methyl-4-(4-fluoroanilino)-1,2,3,4-tetrahydroquinoline]	1	86	2	4	2					
C[C@@H]1C[C@H](Nc2ccc(F)cc2)c2cc(F)ccc2N1C(=O)c1ccc(F)c(Cl)c1 (relative stereo) [Compound I-7, cis-1-(3-chloro-4-fluorobenzoyl)-6-fluoro-2-methyl-4-(4-fluoroanilino)-1,2,3,4-tetrahydroquinoline]	32	357	14	8	94					
Cc1ccc(C(=O)N2c3ccc(F)cc3[C@@H](Nc3ccc(F)cc3)C[C@@H]2C)cc1F (relative stereo) [Compound I-12]						169	very active	504	815	
Cc1cc(C(=O)N2c3ccc(F)cc3[C@@H](Nc3ccc(F)cc3)C[C@@H]2C)ccc1F (relative stereo) [Compound I-13]						105	very active	189	4	
Cc1ccc(C(=O)N2c3ccc(F)cc3[C@H](Nc3ccc(F)cc3)C[C@@H]2C)cc1F (relative stereo) [Compound I-14]						7	very active	518	2	
COc1cccc(C(=O)N2c3ccc(C)cc3[C@@H](Nc3ccc(C)cc3)C[C@@H]2C)c1 (relative stereo) [Compound I-86]						1		2		1
COC(=O)c1ccc(C(=O)N2c3ccc(F)cc3C(Nc3ccc(F)cc3)CC2C)cc1 (stereo not drawn) [Compound I-94]						48		798		32
CC1CC(Nc2ccccc2)c2ccccc2N1C(=O)c1ccno1 (stereo not drawn) [Compound I-104]						1		347		1
COc1ccc(C(=O)N2c3c(C)cccc3C(Nc3ccccc3C)CC2C)cc1 (stereo not drawn) [Compound I-135]						1		1	1	3
Cc1ccccc1NC1CC(C)N(C(=O)c2ccccc2)c2c(C)cccc21 (stereo not drawn) [Compound I-184]								1		1
CCNC(=O)N1c2ccccc2C(Nc2ccccc2)CC1C (stereo not drawn) [Compound I-210]								12		1
